The values below come from ChEMBL document CHEMBL1149522, “Synthesis of 3H-spiro[benzofuran-2,1'-cyclohexane] derivatives from naturally occurring filifolinol and their classical complement pathway inhibitory activity” (Bioorg Med Chem Lett, 2006).

“And” between values parts separate entries of the source, which are not always exact repeats. Identical values can stand only once.

The first test relates to RBCs. The test can be described thus: Inhibition of complement-induced hemolysis in sensitized sheep erythrocytes. The settings on record: Ovis aries, Erythrocyte. Type of test: functional, cell-based.
Broadly, the IC50 is the concentration at which inhibition is half-maximal. Turning to `C[C@H]1CC[C@@H](O)C(C)(C)[C@@]12Cc1cc(C(=O)[O-])ccc1O2.[Na+]`, the IC50 was 2 mM and 580 µg/mL.

`C[C@]1(O)CC[C@@H]([C@]2(C)Cc3c(O)ccc(C(=O)[O-])c3O2)C[C@H]1O.[Na+]`: the IC50 was 1.6 mM and 515 µg/mL.

In the case of `COc1ccc(C(=O)[O-])c2c1CC1(CCCCC1)O2.[Na+]`, the IC50 is 1.3 mM and 341 µg/mL.

For `CC(=O)c1c(O)ccc2c1C[C@@]1(O2)[C@@H](C)CC[C@@H](O)C1(C)C`, the IC50 was 1.07 mM and 320 µg/mL.

For `C[C@H]1CC[C@@H](O)C(C)(C)[C@@]12Cc1cc(O)ccc1O2`, the IC50 was 455 µM and 260 µg/mL.

As for `C[C@@H]1CCC2C(C)(C)[C@H](O)[C@H](O)C[C@]2(C)[C@@]12Cc1c(O)cc(C(=O)[O-])c(C=O)c1O2.[Na+]` (stereo partly specified), the IC50 is 570 µM and 238 µg/mL.

Take `COc1cc(C(=O)[O-])cc2c1CC1(CCCCC1)O2.[Na+]`: the IC50 is 820 µM and 214 µg/mL.

`COc1cc(C(=O)[O-])c(C=O)c2c1CC1(CCCCC1)O2.[Na+]`: the IC50 was 160 µM and 44 µg/mL.

For the compound `C[C@H]1CC[C@@H](O)C(C)(C)[C@@]12Cc1cc(C(=O)[O-])cc(C#N)c1O2.[Na+]`, the IC50 is 1.32 mM and 415 µg/mL.

With `C[C@H]1CC[C@@H](O)C(C)(C)[C@@]12Cc1cc(C(=O)[O-])cc(Br)c1O2.[Na+]`, the IC50 is 950 µM and 350 µg/mL.

In another test the test system is RBCs. The test can be described thus: Inhibition of complement-induced hemolysis in sensitized sheep erythrocytes at 253 ug/ml. Type of test: functional. The note with it: Ovis aries, Erythrocyte.
What is called inhibition is the percentage by which the read-out fell short of the control. `CC(=O)c1cc2c(cc1O)C[C@@]1(O2)[C@@H](C)CC[C@@H](O)C1(C)C`: the inhibition at 253 µg/mL came to 17%.
